Measurements published in ChEMBL document CHEMBL3877299, “Imidazopyridine-fused [1,3]-diazepinones part 2: Structure-activity relationships and antiproliferative activity against melanoma cells” (Eur J Med Chem, 2017).

How the values were obtained:
Assay type in all cases: functional
[1] = Growth inhibition of human HL-60(TB) cells assessed as cell growth at 10 uM incubated for 48 hrs by sulforhodamine B assay relative to control; conditions: HL-60, 48 h, read-out: Activity
[2] = Growth inhibition of human K562 cells assessed as cell growth at 10 uM incubated for 48 hrs by sulforhodamine B assay relative to control; conditions: K562, 48 h, read-out: Activity
[3] = Growth inhibition of human MOLT4 cells assessed as cell growth at 10 uM incubated for 48 hrs by sulforhodamine B assay relative to control; conditions: MOLT-4, 48 h, read-out: Activity
[4] = Growth inhibition of human RPMI8226 cells assessed as cell growth at 10 uM incubated for 48 hrs by sulforhodamine B assay relative to control; conditions: RPMI-8226, 48 h, read-out: Activity
[5] = Growth inhibition of human A549/ATCC cells assessed as cell growth at 10 uM incubated for 48 hrs by sulforhodamine B assay relative to control; conditions: A549, 48 h, read-out: Activity
[6] = Growth inhibition of human EKVX cells assessed as cell growth at 10 uM incubated for 48 hrs by sulforhodamine B assay relative to control; conditions: read-out: Activity
[7] = Growth inhibition of human NCI-H226 cells assessed as cell growth at 10 uM incubated for 48 hrs by sulforhodamine B assay relative to control; conditions: NCI-H226, 48 h, read-out: Activity
[8] = Growth inhibition of human NCI-H322M cells assessed as cell growth at 10 uM incubated for 48 hrs by sulforhodamine B assay relative to control; conditions: read-out: Activity
[9] = Growth inhibition of human NCI-H460 cells assessed as cell growth at 10 uM incubated for 48 hrs by sulforhodamine B assay relative to control; conditions: NCI-H460, 48 h, read-out: Activity
[10] = Growth inhibition of human KM12 cells assessed as cell growth at 10 uM incubated for 48 hrs by sulforhodamine B assay relative to control; conditions: KM12, 48 h, read-out: Activity
[11] = Growth inhibition of human SW620 cells assessed as cell growth at 10 uM incubated for 48 hrs by sulforhodamine B assay relative to control; conditions: SW-620, 48 h, read-out: Activity
[12] = Growth inhibition of human SF268 cells assessed as cell growth at 10 uM incubated for 48 hrs by sulforhodamine B assay relative to control; conditions: SF-268, 48 h, read-out: Activity
[13] = Growth inhibition of human SF295 cells assessed as cell growth at 10 uM incubated for 48 hrs by sulforhodamine B assay relative to control; conditions: SF-295, 48 h, read-out: Activity
[14] = Growth inhibition of human SF539 cells assessed as cell growth at 10 uM incubated for 48 hrs by sulforhodamine B assay relative to control; conditions: SF-539, 48 h, read-out: Activity
[15] = Growth inhibition of human SNB19 cells assessed as cell growth at 10 uM incubated for 48 hrs by sulforhodamine B assay relative to control; conditions: SNB-19, 48 h, read-out: Activity
[16] = Growth inhibition of human U251 cells assessed as cell growth at 10 uM incubated for 48 hrs by sulforhodamine B assay relative to control; conditions: U-251, 48 h, read-out: Activity
[17] = Growth inhibition of human MALME-3M cells assessed as cell growth at 10 uM incubated for 48 hrs by sulforhodamine B assay relative to control; conditions: read-out: Activity
[18] = Growth inhibition of human MDA-MB-435 cells assessed as cell growth at 10 uM incubated for 48 hrs by sulforhodamine B assay relative to control; conditions: MDA-MB-435, 48 h, read-out: Activity
[19] = Growth inhibition of human SK-MEL-2 cells assessed as cell growth at 10 uM incubated for 48 hrs by sulforhodamine B assay relative to control; conditions: SK-MEL-2, 48 h, read-out: Activity
[20] = Growth inhibition of human SK-MEL-28 cells assessed as cell growth at 10 uM incubated for 48 hrs by sulforhodamine B assay relative to control; conditions: SK-MEL-28, 48 h, read-out: Activity
[21] = Growth inhibition of human SK-MEL-5 cells assessed as cell growth at 10 uM incubated for 48 hrs by sulforhodamine B assay relative to control; conditions: SK-MEL-5, 48 h, read-out: Activity
[22] = Growth inhibition of human UACC62 cells assessed as cell growth at 10 uM incubated for 48 hrs by sulforhodamine B assay relative to control; conditions: UACC-62, 48 h, read-out: Activity
[23] = Growth inhibition of human IGROV1 cells assessed as cell growth at 10 uM incubated for 48 hrs by sulforhodamine B assay relative to control; conditions: IGROV-1, 48 h, read-out: Activity
[24] = Growth inhibition of human OVCAR4 cells assessed as cell growth at 10 uM incubated for 48 hrs by sulforhodamine B assay relative to control; conditions: OVCAR-4, 48 h, read-out: Activity
[25] = Growth inhibition of human OVCAR5 cells assessed as cell growth at 10 uM incubated for 48 hrs by sulforhodamine B assay relative to control; conditions: OVCAR-5, 48 h, read-out: Activity
[26] = Growth inhibition of human SKOV3 cells assessed as cell growth at 10 uM incubated for 48 hrs by sulforhodamine B assay relative to control; conditions: SK-OV-3, 48 h, read-out: Activity
[27] = Growth inhibition of human 786-0 cells assessed as cell growth at 10 uM incubated for 48 hrs by sulforhodamine B assay relative to control; conditions: 786-0, 48 h, read-out: Activity
[28] = Growth inhibition of human A498 cells assessed as cell growth at 10 uM incubated for 48 hrs by sulforhodamine B assay relative to control; conditions: A498, 48 h, read-out: Activity
[29] = Growth inhibition of human ACHN cells assessed as cell growth at 10 uM incubated for 48 hrs by sulforhodamine B assay relative to control; conditions: read-out: Activity
[30] = Growth inhibition of human RXF393 cells assessed as cell growth at 10 uM incubated for 48 hrs by sulforhodamine B assay relative to control; conditions: RXF 393, 48 h, read-out: Activity
[31] = Growth inhibition of human TK10 cells assessed as cell growth at 10 uM incubated for 48 hrs by sulforhodamine B assay relative to control; conditions: TK-10, 48 h, read-out: Activity
[32] = Growth inhibition of human UO31 cells assessed as cell growth at 10 uM incubated for 48 hrs by sulforhodamine B assay relative to control; conditions: UO-31, 48 h, read-out: Activity
[33] = Growth inhibition of human PC3 cells assessed as cell growth at 10 uM incubated for 48 hrs by sulforhodamine B assay relative to control; conditions: PC-3, 48 h, read-out: Activity
[34] = Growth inhibition of human Hs 578T cells assessed as cell growth at 10 uM incubated for 48 hrs by sulforhodamine B assay relative to control; conditions: read-out: Activity
[35] = Growth inhibition of human MDA-MB-468 cells assessed as cell growth at 10 uM incubated for 48 hrs by sulforhodamine B assay relative to control; conditions: MDA-MB-468, 48 h, read-out: Activity

Compound	growth at 10 µM [1]	growth at 10 µM [2]	growth at 10 µM [3]	growth at 10 µM [4]	growth at 10 µM [5]	growth at 10 µM [6]	growth at 10 µM [7]	growth at 10 µM [8]	growth at 10 µM [9]	growth at 10 µM [10]	growth at 10 µM [11]	growth at 10 µM [12]	growth at 10 µM [13]	growth at 10 µM [14]	growth at 10 µM [15]	growth at 10 µM [16]	growth at 10 µM [17]	growth at 10 µM [18]	growth at 10 µM [19]	growth at 10 µM [20]	further results
C[C@@H]1NC(c2ccc(Cl)cc2)=Nc2nc3ccccn3c2C1=O	102%	70%	88.5%	91.3%	85.8%	92.4%	88%	87%	96.1%	64.2%	83.6%	87.3%	92.4%	84.7%	93.2%	92.5%	76.2%	32.9%	84.8%	92.8%	growth at 10 µM [21]: 87.7%; growth at 10 µM [22]: 78.6%; growth at 10 µM [23]: 50.7%; growth at 10 µM [24]: 109%; growth at 10 µM [25]: 109%; growth at 10 µM [26]: 75.5%; growth at 10 µM [27]: 108%; growth at 10 µM [28]: 118%; growth at 10 µM [29]: 88.3%; growth at 10 µM [30]: 97.9%; growth at 10 µM [31]: 114%; growth at 10 µM [32]: 68.2%; growth at 10 µM [33]: 90%; growth at 10 µM [34]: 87.1%; growth at 10 µM [35]: 97.9%
CC(C)(C)OC[C@@H]1NC(c2ccc(Br)cc2)=Nc2nc3ccccn3c2C1=O	33.1%	25.2%	53.7%	67.5%	51.6%	81.6%	78.1%	84.8%	41.3%	49%	40.3%	74.3%	30.9%	75.8%	76.5%	63.5%	51.5%	-13.8%	49.2%	68.6%	growth at 10 µM [21]: 38.4%; growth at 10 µM [22]: 53.6%; growth at 10 µM [23]: 40.8%; growth at 10 µM [24]: 82.3%; growth at 10 µM [25]: 105%; growth at 10 µM [26]: 64.3%; growth at 10 µM [27]: 94.2%; growth at 10 µM [28]: 66.9%; growth at 10 µM [29]: 75.3%; growth at 10 µM [30]: 61.6%; growth at 10 µM [31]: 95.1%; growth at 10 µM [32]: 52.1%; growth at 10 µM [33]: 53.4%; growth at 10 µM [34]: 65.2%; growth at 10 µM [35]: 45.6%
C[C@@H]1NC(c2ccc3ccccc3c2)=Nc2nc3ccccn3c2C1=O	-6.75%	27.6%	34.5%	43.8%	39.5%	75.6%	64.5%	73.2%	15.2%	30.3%	26.3%	58%	14.9%	37.2%	53.3%	32.5%	42.3%	-24.6%	36.3%	59.9%	growth at 10 µM [21]: 35.3%; growth at 10 µM [22]: 48.8%; growth at 10 µM [23]: 32.1%; growth at 10 µM [24]: 74.5%; growth at 10 µM [25]: 90.6%; growth at 10 µM [26]: 40.5%; growth at 10 µM [27]: 69.3%; growth at 10 µM [28]: 47.2%; growth at 10 µM [29]: 55.4%; growth at 10 µM [30]: 49.9%; growth at 10 µM [31]: 64.4%; growth at 10 µM [32]: 55.6%; growth at 10 µM [33]: 52%; growth at 10 µM [34]: 29.3%; growth at 10 µM [35]: 50.5%
C[C@@H]1NC(c2ccc(Cl)cc2Cl)=Nc2nc3ccccn3c2C1=O	0.46%	23.6%	50.4%	75.2%	40.6%	82.5%	75.7%	63.6%	18.7%	23.8%	25.2%	58.9%	14.5%	53%	60.8%	41.4%	43.7%	-16.6%	38.2%	60.7%	growth at 10 µM [21]: 39.6%; growth at 10 µM [22]: 40.5%; growth at 10 µM [23]: 41.9%; growth at 10 µM [24]: 89.5%; growth at 10 µM [25]: 91.2%; growth at 10 µM [26]: 50.1%; growth at 10 µM [27]: 73.2%; growth at 10 µM [28]: 60.7%; growth at 10 µM [29]: 60.2%; growth at 10 µM [30]: 80.2%; growth at 10 µM [31]: 74.5%; growth at 10 µM [32]: 52.4%; growth at 10 µM [33]: 39.1%; growth at 10 µM [34]: 52%; growth at 10 µM [35]: 53.9%
